From ChEMBL document CHEMBL1201862, “PubChem BioAssay data set” (2004)
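Test compounds were applied to cells in 96-well plates for 48 hours at 5 doses. At the GI50, growth is halved.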 Activity calls are given as the source filed them. Rule as the data show it: active = GI50 up to about 1.1 µM and inactive = higher.

Legend:
Assay in all cases: NCI tumour cell line growth inhibition, 48 h
[1] = tested on: HOP-62
[2] = tested on: NCI/ADR-RES
[3] = tested on: MDA-MB-435
[4] = tested on: RPMI-8226
[5] = tested on: DU-145
[6] = tested on: PC-3
[7] = tested on: Hs-578T
[8] = tested on: BT-549
[9] = tested on: MDA-MB-231
[10] = tested on: T47D
[11] = tested on: RXF 393
[12] = tested on: MCF7
[13] = tested on: MDA-N
[14] = tested on: SK-OV-3
[15] = tested on: TK-10
[16] = tested on: SK-MEL-5
[17] = tested on: UACC-257
[18] = tested on: IGROV-1
[19] = tested on: CCRF-CEM
[20] = tested on: HOP-92
[21] = tested on: EKVX
[22] = tested on: Malme-3M
[23] = tested on: K562
[24] = tested on: SF-295
[25] = tested on: SNB-19
[26] = tested on: SF-268
[27] = tested on: HCT-116
[28] = tested on: A498
[29] = tested on: UO-31
[30] = tested on: OVCAR-5
[31] = tested on: UACC-62
[32] = tested on: SW-620
[33] = tested on: SNB-75
[34] = tested on: COLO 205
[35] = tested on: LOX IMVI
[36] = tested on: NCI-H23
[37] = tested on: KM12
[38] = tested on: SF-539
[39] = tested on: SK-MEL-2
[40] = tested on: MOLT-4
[41] = tested on: 786-0
[42] = tested on: CAKI-1
[43] = tested on: ACHN
[44] = tested on: SN12C
[45] = tested on: OVCAR-3
[46] = tested on: M14
[47] = tested on: SK-MEL-28
[48] = tested on: HL-60
[49] = tested on: U-251
[50] = tested on: A549

Measured: GI50

O=C(O)C1NCCc2c1[nH]c1ccccc21 (stereo not given)
inactive: [1] > 10 µM | [2] > 10 µM | [3] > 10 µM | [4] > 10 µM | [5] > 10 µM | [6] > 10 µM | [7] > 10 µM | [8] > 10 µM | [9] > 10 µM | [10] > 10 µM | [11] > 10 µM | [12] > 10 µM | [13] > 10 µM

CCC1OC2(C)CC(C#N)(C#N)C1(C#N)C(=N)O2 (stereo not given)
inactive: [14] > 100 µM | [15] > 100 µM | [16] > 100 µM | [17] > 100 µM | [18] > 100 µM | [19] > 100 µM | [20] > 100 µM | [3] > 100 µM | [21] > 100 µM | [22] > 100 µM | [23] > 100 µM | [5] > 100 µM | [24] > 100 µM | [25] > 100 µM | [6] > 100 µM | [7] > 100 µM | [8] > 100 µM | [26] > 100 µM | [27] > 100 µM | [28] > 100 µM | [9] > 100 µM | [29] > 100 µM | [30] > 100 µM | [10] > 100 µM | [11] > 100 µM | [31] > 100 µM | [32] > 100 µM | [33] > 100 µM | [34] > 100 µM | [35] > 100 µM | [12] > 100 µM | [36] > 100 µM | [13] > 100 µM | [37] > 100 µM | [38] > 100 µM | [39] > 100 µM | [40] > 100 µM | [41] > 100 µM | [42] > 100 µM | [43] > 100 µM | [44] > 100 µM | [45] > 100 µM | [46] > 100 µM | [47] > 100 µM | [48] > 100 µM | [49] > 100 µM | [50] > 100 µM
